Experimental data from ChEMBL document CHEMBL1201862, “PubChem BioAssay data set” (2004).
Calls of active or inactive are those of the source.

Columns and labels:
[1] = target: Ras and Rab interactor 1/Tyrosine-protein kinase ABL1 (Homo sapiens, UniProt P00519+Q13671); format: functional;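 note: biochemical TR-FRET dose-response test measuring inhibition of binding between Rin1 and Abl proteins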
[2] = target: T1, High affinity choline transporter 1 (Homo sapiens, UniProt Q9GZV3); experiment: CHT inhibitors, dose response, cell-based, 5-point CRC, membrane potential dye (AID 504840); format: functional
T1 sequence (Q9GZV3 whole entry): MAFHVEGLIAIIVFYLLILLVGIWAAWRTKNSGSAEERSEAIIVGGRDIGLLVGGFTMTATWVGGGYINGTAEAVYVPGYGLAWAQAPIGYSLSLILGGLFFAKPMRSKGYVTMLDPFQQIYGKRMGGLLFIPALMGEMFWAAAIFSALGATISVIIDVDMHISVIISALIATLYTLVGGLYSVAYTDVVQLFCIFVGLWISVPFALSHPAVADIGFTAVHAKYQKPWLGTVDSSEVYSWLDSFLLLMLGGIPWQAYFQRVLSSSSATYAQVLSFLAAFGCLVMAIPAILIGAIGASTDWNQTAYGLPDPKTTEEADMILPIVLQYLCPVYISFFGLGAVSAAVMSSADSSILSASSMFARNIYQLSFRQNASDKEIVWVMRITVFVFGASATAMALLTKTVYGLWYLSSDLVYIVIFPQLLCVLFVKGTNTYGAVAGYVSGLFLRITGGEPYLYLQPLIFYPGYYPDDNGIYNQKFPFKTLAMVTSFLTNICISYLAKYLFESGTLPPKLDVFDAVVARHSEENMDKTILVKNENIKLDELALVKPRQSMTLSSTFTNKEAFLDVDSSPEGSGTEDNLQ

[3] = target: T1, High affinity choline transporter 1; experiment: CHT inhibitors, dose response, cell-based, 10-point CRC, membrane potential dye (AID 588401); format: functional;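 note: membrane potential dye fluorescence of choline-evoked depolarization via CHT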
[4] = Shn3 3'UTR reporter inhibitors, dose response, cell-based, Clone20 osteoblasts, firefly luciferase, cherry-picked (AID 624132); format: functional;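 note: firefly luciferase luminescence from reporter carrying the Shn3 3'UTR in osteoblasts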
[5] = HepG2 cell cytotoxicity, dose response, cytotoxicity control for Shn3 inhibitor project, CellTiter-Glo, cherry-picked (AID 624134); format: functional, cell-based
[6] = control 3'UTR Renilla luciferase suppression, dose response, counter-screen for Shn3 inhibitor project, cell-based, Clone20-Shn3RL, cherry-picked (AID 624133); format: functional
Protein Wnt-3a = Protein Wnt-3a (Mus musculus, UniProt P27467); experiment: Wnt3a-driven reporter signaling inhibition, dose response, selectivity assay for Gli-SUFU antagonist project, Wnt-LIGHT cells, luminescence (AID 651570); format: functional; conditions: read-out: IC50_Mean;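 note: Wnt-LIGHT reporter cells stimulated with conditioned medium from Wnt3a-producing cells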
Sequence of Protein Wnt-3a (P27467 whole entry): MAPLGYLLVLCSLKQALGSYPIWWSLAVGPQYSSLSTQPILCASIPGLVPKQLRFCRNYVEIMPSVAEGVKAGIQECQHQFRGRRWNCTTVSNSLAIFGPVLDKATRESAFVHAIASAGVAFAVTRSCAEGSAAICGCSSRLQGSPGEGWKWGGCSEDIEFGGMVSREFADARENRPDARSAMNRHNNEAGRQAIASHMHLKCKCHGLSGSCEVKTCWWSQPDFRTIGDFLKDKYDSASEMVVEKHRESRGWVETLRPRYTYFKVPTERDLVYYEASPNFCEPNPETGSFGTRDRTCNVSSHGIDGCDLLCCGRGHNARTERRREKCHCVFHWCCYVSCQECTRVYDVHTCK

[7] = target: T2, Short transient receptor potential channel 4 (Mus musculus, UniProt Q9QUQ5); experiment: mouse TRPC4 channel inhibitors, dose response, cell-based, HEK293 TRPC4/mu-opioid, Fluo-4 calcium (AID 434942); format: functional;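 note: potency of inhibitors blocking the TRPC4 calcium response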
T2 sequence (Q9QUQ5 whole entry): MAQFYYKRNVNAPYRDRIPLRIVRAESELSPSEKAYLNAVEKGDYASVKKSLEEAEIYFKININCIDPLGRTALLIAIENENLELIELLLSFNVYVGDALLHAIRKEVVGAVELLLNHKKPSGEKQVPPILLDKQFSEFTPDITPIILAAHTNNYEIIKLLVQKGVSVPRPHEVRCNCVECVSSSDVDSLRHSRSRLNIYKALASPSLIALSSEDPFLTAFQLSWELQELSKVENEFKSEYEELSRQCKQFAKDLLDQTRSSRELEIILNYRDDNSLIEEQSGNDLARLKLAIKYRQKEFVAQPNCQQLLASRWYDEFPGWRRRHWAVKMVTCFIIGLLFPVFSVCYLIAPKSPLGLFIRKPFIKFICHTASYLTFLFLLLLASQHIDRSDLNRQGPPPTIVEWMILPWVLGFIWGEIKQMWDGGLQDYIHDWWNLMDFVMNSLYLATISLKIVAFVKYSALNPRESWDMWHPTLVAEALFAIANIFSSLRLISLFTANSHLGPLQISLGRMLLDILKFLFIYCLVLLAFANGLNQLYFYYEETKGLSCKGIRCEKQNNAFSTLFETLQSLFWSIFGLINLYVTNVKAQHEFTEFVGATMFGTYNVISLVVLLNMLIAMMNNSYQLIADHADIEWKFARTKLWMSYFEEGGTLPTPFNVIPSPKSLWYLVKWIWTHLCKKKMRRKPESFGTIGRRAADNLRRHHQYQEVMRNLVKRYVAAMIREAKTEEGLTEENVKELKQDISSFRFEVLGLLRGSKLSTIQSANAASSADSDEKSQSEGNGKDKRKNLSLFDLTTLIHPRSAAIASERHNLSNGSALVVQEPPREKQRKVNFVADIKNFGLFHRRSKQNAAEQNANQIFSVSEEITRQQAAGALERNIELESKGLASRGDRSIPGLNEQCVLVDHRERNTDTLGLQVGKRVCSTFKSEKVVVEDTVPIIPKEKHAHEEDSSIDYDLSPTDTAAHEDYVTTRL

[8] = Luminescence Cell-Based Dose Confirmation HTS to Identify Activators of 5'UTR Stem-Loop Driven Alpha-Synuclein mRNA Translation in H4 Neuroglioblastoma Cells. [Related pubchem assays: 1829 (Project Summary), 1814 (Primary HTS)]; format: functional
[9] = Luminescence Cell-Based Dose Response HTS to Identify Activators of Luciferase Translation or Activity in H4 […] Cells. [Related pubchem assays: 1829 (Project Summary), 1814 (Primary HTS)]; format: functional
H4 = experiment: Luminescence Cell-Based Dose Response HTS to Identify Activators of 5'UTR Stem-Loop Driven Prion Protein mRNA Translation in H4 Neuroglioblastoma Cells. [Related pubchem assays: 1829 (Project Summary), 1814 (Primary HTS)]; format: functional; conditions: Homo sapiens
[10] = target: T3, Sentrin-specific protease 8 (Homo sapiens, UniProt Q96LD8); experiment: SENP8 protease inhibitors, SAR follow-up, biochemical, luminescence (AID 504501); format: functional
T3 sequence (Q96LD8 whole entry): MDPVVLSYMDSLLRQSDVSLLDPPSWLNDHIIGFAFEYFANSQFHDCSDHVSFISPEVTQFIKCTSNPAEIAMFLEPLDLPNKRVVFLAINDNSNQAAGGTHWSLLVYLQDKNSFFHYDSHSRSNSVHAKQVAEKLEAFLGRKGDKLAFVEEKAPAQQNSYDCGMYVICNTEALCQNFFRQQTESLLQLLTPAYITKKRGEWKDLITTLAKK

Caspase-3 = target: T4, Caspase-3 (Homo sapiens, UniProt P42574); experiment: SAR Analysis of small molecule inhibitors of Sentrin-specific proteases (SENPs) using a Caspase-3 Selectivity assay. [Related pubchem assays (depositor defined):AID2540, AID2599, AID434973, AID489001]; format: functional
T4 sequence (P42574 whole entry): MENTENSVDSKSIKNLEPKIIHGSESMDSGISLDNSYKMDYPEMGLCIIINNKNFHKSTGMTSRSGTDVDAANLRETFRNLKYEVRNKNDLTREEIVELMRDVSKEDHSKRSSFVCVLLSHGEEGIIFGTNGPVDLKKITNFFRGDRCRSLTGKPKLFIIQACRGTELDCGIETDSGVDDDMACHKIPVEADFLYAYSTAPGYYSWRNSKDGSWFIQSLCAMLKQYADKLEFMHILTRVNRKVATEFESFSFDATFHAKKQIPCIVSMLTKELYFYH

[11] = target: T5, Sentrin-specific protease 6 (Homo sapiens, UniProt Q9GZR1); experiment: SAR Analysis of small molecule inhibitors of Sentrin-specific protease 6 (SENP6) using a Luminescent assay. [Related pubchem assays (depositor defined):AID2582, AID2599]; format: functional
T5 sequence (Q9GZR1 whole entry): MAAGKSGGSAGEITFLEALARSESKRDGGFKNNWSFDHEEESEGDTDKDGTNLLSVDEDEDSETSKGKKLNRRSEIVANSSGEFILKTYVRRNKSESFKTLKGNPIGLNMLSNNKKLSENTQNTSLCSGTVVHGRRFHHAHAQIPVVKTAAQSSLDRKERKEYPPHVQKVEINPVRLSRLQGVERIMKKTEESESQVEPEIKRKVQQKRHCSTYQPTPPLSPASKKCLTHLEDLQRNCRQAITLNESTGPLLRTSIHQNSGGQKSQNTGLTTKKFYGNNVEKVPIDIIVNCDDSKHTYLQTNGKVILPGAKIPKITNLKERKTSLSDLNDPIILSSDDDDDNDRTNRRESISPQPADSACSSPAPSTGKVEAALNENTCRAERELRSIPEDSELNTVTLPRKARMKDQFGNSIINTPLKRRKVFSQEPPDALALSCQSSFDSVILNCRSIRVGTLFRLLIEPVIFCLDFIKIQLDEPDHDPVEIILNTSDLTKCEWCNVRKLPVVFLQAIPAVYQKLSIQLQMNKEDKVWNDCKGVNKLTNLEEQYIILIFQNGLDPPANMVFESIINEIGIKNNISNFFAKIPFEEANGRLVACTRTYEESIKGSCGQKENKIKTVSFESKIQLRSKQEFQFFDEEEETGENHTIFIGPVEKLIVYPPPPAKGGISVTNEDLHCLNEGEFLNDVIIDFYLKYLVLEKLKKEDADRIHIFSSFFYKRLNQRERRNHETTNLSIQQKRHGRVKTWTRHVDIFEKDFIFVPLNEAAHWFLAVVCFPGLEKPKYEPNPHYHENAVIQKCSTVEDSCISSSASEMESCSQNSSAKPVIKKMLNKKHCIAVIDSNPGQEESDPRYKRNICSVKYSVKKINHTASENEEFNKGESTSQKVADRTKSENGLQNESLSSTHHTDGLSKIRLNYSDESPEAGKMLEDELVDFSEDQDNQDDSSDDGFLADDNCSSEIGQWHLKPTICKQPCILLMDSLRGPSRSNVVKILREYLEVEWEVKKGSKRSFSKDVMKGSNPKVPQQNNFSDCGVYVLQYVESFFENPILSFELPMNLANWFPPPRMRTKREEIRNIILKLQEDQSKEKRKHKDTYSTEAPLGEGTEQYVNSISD

[12] = target: T6, DNA repair and recombination protein RAD54-like (Homo sapiens, UniProt Q92698); experiment: inhibitors of human RAD54 branch migration, confirmation, biochemical, fluorescence, cherry-picked samples, dose series (AID 651657); format: functional
T6 sequence (Q92698 whole entry): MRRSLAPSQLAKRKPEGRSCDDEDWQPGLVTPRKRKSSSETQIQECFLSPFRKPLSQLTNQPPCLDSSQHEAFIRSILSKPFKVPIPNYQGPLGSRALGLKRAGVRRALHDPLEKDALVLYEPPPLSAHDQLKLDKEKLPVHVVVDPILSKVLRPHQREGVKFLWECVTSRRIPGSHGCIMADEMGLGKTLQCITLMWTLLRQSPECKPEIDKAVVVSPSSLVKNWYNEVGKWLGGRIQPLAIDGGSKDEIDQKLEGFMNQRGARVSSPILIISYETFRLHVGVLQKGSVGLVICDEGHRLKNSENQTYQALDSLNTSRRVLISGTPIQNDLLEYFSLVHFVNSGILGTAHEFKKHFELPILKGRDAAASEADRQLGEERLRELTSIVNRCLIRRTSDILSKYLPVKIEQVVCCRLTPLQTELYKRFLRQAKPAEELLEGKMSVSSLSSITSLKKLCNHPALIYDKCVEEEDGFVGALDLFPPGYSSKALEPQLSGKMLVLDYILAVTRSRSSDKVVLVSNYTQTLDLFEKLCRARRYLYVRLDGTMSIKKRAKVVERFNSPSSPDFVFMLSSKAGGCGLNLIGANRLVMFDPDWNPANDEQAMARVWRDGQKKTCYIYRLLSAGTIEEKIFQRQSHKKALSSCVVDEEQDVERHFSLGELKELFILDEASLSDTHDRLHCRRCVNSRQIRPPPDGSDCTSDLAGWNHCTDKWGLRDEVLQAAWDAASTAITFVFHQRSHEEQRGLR

[13] = target: T7, DNA repair protein RAD52 homolog (Homo sapiens, UniProt P43351); format: functional, biochemical
T7 sequence (P43351 whole entry): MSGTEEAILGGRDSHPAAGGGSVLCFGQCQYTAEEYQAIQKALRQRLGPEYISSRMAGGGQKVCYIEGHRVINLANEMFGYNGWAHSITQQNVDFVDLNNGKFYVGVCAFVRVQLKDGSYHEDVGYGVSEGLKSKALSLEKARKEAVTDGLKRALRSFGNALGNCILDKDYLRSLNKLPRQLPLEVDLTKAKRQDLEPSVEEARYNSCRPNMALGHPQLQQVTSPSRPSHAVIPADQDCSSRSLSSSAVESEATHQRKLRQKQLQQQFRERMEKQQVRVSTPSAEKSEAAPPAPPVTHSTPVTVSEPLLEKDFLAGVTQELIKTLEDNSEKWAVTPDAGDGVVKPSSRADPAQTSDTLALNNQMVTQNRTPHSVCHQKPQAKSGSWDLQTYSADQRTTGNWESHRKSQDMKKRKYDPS

Sequence of Ras and Rab interactor 1/Tyrosine-protein kinase ABL1 (P00519 whole entry): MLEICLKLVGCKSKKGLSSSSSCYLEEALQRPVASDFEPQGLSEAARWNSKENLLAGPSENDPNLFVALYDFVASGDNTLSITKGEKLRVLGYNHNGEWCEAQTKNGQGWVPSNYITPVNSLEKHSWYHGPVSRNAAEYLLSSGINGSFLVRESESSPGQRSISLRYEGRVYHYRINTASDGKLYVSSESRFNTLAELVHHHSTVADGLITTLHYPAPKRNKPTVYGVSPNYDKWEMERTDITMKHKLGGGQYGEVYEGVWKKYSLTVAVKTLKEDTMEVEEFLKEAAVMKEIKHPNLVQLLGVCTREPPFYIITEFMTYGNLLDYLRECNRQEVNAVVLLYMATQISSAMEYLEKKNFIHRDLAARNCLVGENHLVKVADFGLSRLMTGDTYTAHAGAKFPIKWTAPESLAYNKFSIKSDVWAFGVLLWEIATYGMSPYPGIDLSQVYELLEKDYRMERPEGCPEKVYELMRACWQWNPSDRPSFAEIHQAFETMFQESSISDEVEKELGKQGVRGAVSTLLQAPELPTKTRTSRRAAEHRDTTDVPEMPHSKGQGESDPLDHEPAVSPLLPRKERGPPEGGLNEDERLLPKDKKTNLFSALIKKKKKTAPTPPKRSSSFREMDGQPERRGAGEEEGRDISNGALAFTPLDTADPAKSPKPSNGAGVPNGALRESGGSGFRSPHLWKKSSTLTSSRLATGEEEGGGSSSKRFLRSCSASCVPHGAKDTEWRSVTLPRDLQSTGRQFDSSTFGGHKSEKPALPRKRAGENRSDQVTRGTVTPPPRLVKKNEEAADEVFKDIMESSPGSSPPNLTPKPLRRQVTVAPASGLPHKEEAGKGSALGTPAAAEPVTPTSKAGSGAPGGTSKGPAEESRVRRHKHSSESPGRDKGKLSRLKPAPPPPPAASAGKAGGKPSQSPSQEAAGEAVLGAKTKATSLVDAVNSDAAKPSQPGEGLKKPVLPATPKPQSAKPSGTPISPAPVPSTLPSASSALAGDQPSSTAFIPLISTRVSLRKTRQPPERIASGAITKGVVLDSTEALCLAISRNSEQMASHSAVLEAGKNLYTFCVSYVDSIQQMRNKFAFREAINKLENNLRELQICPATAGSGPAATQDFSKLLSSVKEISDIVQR
Sequence of Ras and Rab interactor 1/Tyrosine-protein kinase ABL1 (Q13671 whole entry): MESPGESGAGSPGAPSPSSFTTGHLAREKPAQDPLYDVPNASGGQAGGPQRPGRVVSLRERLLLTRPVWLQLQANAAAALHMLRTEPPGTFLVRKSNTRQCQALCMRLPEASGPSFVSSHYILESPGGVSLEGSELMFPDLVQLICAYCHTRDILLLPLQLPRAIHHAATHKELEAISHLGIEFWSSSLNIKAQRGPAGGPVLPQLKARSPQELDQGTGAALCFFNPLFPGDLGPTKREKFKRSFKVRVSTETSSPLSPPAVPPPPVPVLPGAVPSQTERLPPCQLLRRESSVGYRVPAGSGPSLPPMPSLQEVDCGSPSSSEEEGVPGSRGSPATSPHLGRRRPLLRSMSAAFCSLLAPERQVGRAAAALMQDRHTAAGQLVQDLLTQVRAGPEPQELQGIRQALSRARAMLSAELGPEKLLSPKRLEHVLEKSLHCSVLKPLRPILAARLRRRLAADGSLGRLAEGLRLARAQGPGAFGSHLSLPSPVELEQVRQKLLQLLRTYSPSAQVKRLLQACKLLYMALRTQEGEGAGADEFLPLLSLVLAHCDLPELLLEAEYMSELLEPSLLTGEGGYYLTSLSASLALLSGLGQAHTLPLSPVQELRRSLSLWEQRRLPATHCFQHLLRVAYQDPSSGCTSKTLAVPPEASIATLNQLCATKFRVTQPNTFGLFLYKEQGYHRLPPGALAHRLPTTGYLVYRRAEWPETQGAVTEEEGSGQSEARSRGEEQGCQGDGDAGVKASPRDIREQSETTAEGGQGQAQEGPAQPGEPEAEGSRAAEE

CCCc1ncc(CN2CCC(C(=O)Nc3cccc(-c4cscn4)c3)CC2)cn1
IC50 [1]: 22.3 µM (inactive)

CC(NC(=O)NC1CCCCC1)c1ccc2c(c1)OCO2 (centres undefined)
IC50 [2]: 3.47 µM (active)
IC50 [3]: 2.57 µM (active)

Cc1cc(C)nc(SCC(=O)Nc2ccc(N3CCOCC3)c(Cl)c2)n1
AC50 [4]: 1.66 µM (active)
AC50 [5]: > 70 µM (inactive)
AC50 [6]: 3.13 µM (active)
IC50 (Protein Wnt-3a): 5.24 µM (active)

Cc1c(C(=O)NCC(c2ccco2)N(C)C)oc2c(Cl)cccc12 (centres undefined)
EC50 [7]: 0.267 µM (active)
IC50 [1]: 5.07 µM (active)

CC(=O)Nc1ccc(/C=C/c2n[nH]c(-c3ccccc3O)n2)cc1
EC50 [8]: 2.79 µM (active)
EC50 [9]: 13.6 µM (active)
EC50 (H4): 1.33 µM (active)
IC50 [10]: > 99 µM (inactive)
IC50 (Caspase-3): 30 µM (active)
IC50 [11]: > 99 µM (inactive)

CCCN1CCN(CCCN=C(S)Nc2ccc3nc(N4CCN(CC)CC4)cc(C)c3c2)CC1
IC50 [2]: 2.3 µM (active)
IC50 [3]: 2.67 µM (active)
AC50 [12]: 25.8 µM (active)
AC50 [13]: 1.71 µM (active)

COc1ccc(N(C)S(=O)(=O)c2cccc(C(=O)NC3CCCCC3C)c2)cc1 (centres undefined)
IC50 [2]: 4.79 µM (active)
IC50 [3]: 7.08 µM (active)

O=C(Cn1cc(C(=O)C2CC2)c2ccccc21)Nc1ccccc1Cl
AC50 [4]: 3.42 µM (active)
AC50 [6]: 4.12 µM (active)
IC50 (Protein Wnt-3a): 5.2 µM (active)
